Data reported in publication PMC5974244, “Tumour-associated missense mutations in the dMi-2 ATPase alters nucleosome remodelling properties in a mutation-specific manner” (Nature Communications, 2018).

Columns and labels:
dMi-2 [1] = biological target: T1, dMi-2 (Drosophila melanogaster, UniProt O97159, V538F); test: nitrocellulose filter binding with [gamma-32P]ATP; conditions: labelled compound; same 90 nM protein, 0.25 mM MgCl2, 26 °C; printed as V558F (human CHD4 numbering)
T1 construct: gene Mi-2; FLAG-tagged dMi-2 (no truncation stated), baculovirus / Sf9 cells, anti-FLAG purified, FLAG peptide elution
T1 sequence (O97159 whole entry V538F, the tested form may be a part): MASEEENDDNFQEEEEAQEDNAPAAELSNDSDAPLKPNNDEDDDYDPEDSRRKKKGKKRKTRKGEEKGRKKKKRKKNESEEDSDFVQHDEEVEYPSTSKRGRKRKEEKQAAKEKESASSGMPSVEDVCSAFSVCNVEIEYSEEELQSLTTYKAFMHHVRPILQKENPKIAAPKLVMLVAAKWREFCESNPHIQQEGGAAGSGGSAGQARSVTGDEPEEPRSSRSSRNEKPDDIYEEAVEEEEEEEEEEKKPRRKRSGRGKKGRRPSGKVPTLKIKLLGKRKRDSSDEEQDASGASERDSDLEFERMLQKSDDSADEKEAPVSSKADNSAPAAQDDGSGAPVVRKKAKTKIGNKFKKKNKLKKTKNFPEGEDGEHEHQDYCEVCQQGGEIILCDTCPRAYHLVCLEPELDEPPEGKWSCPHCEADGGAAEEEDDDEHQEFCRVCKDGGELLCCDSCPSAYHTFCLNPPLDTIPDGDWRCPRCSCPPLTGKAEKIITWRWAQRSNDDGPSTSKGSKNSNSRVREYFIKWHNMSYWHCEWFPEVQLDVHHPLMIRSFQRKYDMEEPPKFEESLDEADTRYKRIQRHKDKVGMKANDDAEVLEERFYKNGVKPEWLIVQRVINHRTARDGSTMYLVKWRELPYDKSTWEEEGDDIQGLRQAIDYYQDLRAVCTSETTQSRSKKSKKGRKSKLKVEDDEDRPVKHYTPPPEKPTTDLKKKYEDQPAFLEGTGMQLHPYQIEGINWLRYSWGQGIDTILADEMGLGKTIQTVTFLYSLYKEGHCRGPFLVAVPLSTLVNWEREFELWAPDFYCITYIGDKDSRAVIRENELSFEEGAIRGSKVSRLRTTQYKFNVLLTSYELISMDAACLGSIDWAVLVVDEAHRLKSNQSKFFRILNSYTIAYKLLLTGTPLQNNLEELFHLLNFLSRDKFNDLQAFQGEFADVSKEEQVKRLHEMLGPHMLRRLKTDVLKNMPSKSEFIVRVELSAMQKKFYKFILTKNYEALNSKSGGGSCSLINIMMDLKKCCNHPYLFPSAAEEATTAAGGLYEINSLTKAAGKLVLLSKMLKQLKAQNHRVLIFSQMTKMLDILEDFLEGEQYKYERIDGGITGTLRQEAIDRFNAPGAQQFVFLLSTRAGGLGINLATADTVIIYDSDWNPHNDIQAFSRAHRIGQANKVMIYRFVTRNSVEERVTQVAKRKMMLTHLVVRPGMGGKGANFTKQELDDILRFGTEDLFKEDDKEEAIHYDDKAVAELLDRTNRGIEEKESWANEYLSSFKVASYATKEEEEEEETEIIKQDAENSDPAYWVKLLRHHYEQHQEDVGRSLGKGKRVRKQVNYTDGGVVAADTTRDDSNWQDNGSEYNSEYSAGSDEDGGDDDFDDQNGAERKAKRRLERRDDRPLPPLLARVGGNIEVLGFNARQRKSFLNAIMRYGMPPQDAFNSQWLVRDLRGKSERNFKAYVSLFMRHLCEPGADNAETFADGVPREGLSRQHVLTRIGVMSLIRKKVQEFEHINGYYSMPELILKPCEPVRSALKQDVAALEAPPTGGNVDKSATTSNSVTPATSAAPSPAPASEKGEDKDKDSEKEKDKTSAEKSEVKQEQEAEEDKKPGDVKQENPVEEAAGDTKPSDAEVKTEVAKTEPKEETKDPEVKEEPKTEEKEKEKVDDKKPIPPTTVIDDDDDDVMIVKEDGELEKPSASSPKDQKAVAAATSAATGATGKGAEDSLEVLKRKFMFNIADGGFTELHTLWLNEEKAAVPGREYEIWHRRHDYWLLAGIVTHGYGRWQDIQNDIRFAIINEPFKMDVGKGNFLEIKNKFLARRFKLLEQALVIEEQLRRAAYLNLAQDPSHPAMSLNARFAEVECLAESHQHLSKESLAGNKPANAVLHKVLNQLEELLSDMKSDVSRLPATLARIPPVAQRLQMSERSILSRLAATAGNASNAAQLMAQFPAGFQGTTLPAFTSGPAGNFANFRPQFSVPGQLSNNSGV

dMi-2 [2] = biological target: T2, dMi-2 (Drosophila melanogaster, UniProt O97159); test: nitrocellulose filter binding with [gamma-32P]ATP; conditions: labelled compound; 90 nM protein, 0.25 mM MgCl2, 100 mM KCl, 20 mM HEPES, 26 °C; competition by cold ATP
T2 construct: gene Mi-2; FLAG-tagged dMi-2 (no truncation stated), baculovirus / Sf9 cells, anti-FLAG purified, FLAG peptide elution
T2 sequence (O97159 whole entry, the tested form may be a part): as the sequence (O97159 whole entry V538F, the tested form may be a part) above, with F538V counted along it

dMi-2 [3] = biological target: T3, dMi-2 (Drosophila melanogaster, UniProt O97159, R1164Q); test: nitrocellulose filter binding with [gamma-32P]ATP; conditions: labelled compound; same 90 nM protein, 0.25 mM MgCl2, 26 °C; printed as R1162Q (human CHD4 numbering)
T3 construct: gene Mi-2; FLAG-tagged dMi-2 (no truncation stated), baculovirus / Sf9 cells, anti-FLAG purified, FLAG peptide elution
T3 sequence (O97159 whole entry R1164Q, the tested form may be a part): as the sequence (O97159 whole entry V538F, the tested form may be a part) above, with F538V, R1164Q counted along it

dMi-2 [4] = biological target: T4, dMi-2 (Drosophila melanogaster, UniProt O97159, L914V); test: nitrocellulose filter binding with [gamma-32P]ATP; conditions: labelled compound; same 90 nM protein, 0.25 mM MgCl2, 26 °C; printed as L912V (human CHD4 numbering)
T4 construct: gene Mi-2; FLAG-tagged dMi-2 (no truncation stated), baculovirus / Sf9 cells, anti-FLAG purified, FLAG peptide elution
T4 sequence (O97159 whole entry L914V, the tested form may be a part): as the sequence (O97159 whole entry V538F, the tested form may be a part) above, with F538V, L914V counted along it

dMi-2 [5] = biological target: T5, dMi-2 (Drosophila melanogaster, UniProt O97159, R552Q); test: nitrocellulose filter binding with [gamma-32P]ATP; conditions: labelled compound; same 90 nM protein, 0.25 mM MgCl2, 26 °C; printed as R572Q (human CHD4 numbering; also as R572Y in places, primer encodes Q)
T5 construct: gene Mi-2; FLAG-tagged dMi-2 (no truncation stated), baculovirus / Sf9 cells, anti-FLAG purified, FLAG peptide elution
T5 sequence (O97159 whole entry R552Q, the tested form may be a part): as the sequence (O97159 whole entry V538F, the tested form may be a part) above, with F538V, R552Q counted along it

dMi-2 [6] = biological target: T6, dMi-2 (Drosophila melanogaster, UniProt O97159, C452Y); test: nitrocellulose filter binding with [gamma-32P]ATP; conditions: labelled compound; same 90 nM protein, 0.25 mM MgCl2, 26 °C; printed as C464Y (human CHD4 numbering)
T6 construct: gene Mi-2; FLAG-tagged dMi-2 (no truncation stated), baculovirus / Sf9 cells, anti-FLAG purified, FLAG peptide elution
T6 sequence (O97159 whole entry C452Y, the tested form may be a part): as the sequence (O97159 whole entry V538F, the tested form may be a part) above, with C452Y, F538V counted along it

dMi-2 [7] = biological target: T7, dMi-2 (Drosophila melanogaster, UniProt O97159, H1153R); test: nitrocellulose filter binding with [gamma-32P]ATP; conditions: labelled compound; same 90 nM protein, 0.25 mM MgCl2, 26 °C; printed as H1151R (human CHD4 numbering)
T7 construct: gene Mi-2; FLAG-tagged dMi-2 (no truncation stated), baculovirus / Sf9 cells, anti-FLAG purified, FLAG peptide elution
T7 sequence (O97159 whole entry H1153R, the tested form may be a part): as the sequence (O97159 whole entry V538F, the tested form may be a part) above, with F538V, H1153R counted along it

dMi-2 [8] = biological target: T2, dMi-2; test: ATPase assay, TLC of [gamma-32P]ATP; type: biochemical; conditions: labelled compound as tracer; 20 µM ATP, saturating polynucleosomes, 26 °C, 30 min
dMi-2 [9] = biological target: T8, dMi-2 (Drosophila melanogaster, UniProt O97159, H1198Y); test: nitrocellulose filter binding with [gamma-32P]ATP; conditions: labelled compound; same 90 nM protein, 0.25 mM MgCl2, 26 °C; printed as H1196Y (human CHD4 numbering)
T8 construct: gene Mi-2; FLAG-tagged dMi-2 (no truncation stated), baculovirus / Sf9 cells, anti-FLAG purified, FLAG peptide elution
T8 sequence (O97159 whole entry H1198Y, the tested form may be a part): as the sequence (O97159 whole entry V538F, the tested form may be a part) above, with F538V, H1198Y counted along it

dMi-2 [10] = biological target: T9, dMi-2 (Drosophila melanogaster, UniProt O97159, L1217P); test: nitrocellulose filter binding with [gamma-32P]ATP; conditions: labelled compound; same 90 nM protein, 0.25 mM MgCl2, 26 °C; printed as L1215P (human CHD4 numbering)
T9 construct: gene Mi-2; FLAG-tagged dMi-2 (no truncation stated), baculovirus / Sf9 cells, anti-FLAG purified, FLAG peptide elution
T9 sequence (O97159 whole entry L1217P, the tested form may be a part): as the sequence (O97159 whole entry V538F, the tested form may be a part) above, with F538V, L1217P counted along it

## Nc1ncnc2c1ncn2[C@@H]1O[C@H](COP(=O)(O)OP(=O)(O)OP(=O)(O)O)[C@@H](O)[C@H]1O [ATP]
dMi-2 [1]
  % of WT ATP binding activity: Most dMi-2 mutants displayed robust ATP binding activity
dMi-2 [2]
  nitrocellulose filter binding with [gamma-32P]ATP: Binding of WT dMi-2 to radioactively labelled ATP was efficiently competed by an excess of
dMi-2 [3]
  % of WT ATP binding activity: Most dMi-2 mutants displayed robust ATP binding activity
dMi-2 [4]
  % of WT ATP binding activity: Most dMi-2 mutants displayed robust ATP binding activity
dMi-2 [5]
  % of WT binding activity: 32%
dMi-2 [6]
  % of WT ATP binding activity: Most dMi-2 mutants displayed robust ATP binding activity
dMi-2 [7]
  % of WT ATP binding activity: Most dMi-2 mutants displayed robust ATP binding activity
dMi-2 [8]
  ATPase assay, TLC of [gamma-32P]ATP: We performed ATPase assays in the absence or presence of saturating amounts of salt dialysis-assembled
dMi-2 [9]
  % of WT ATP binding activity: Most dMi-2 mutants displayed robust ATP binding activity
dMi-2 [10]
  % of WT ATP binding activity: Most dMi-2 mutants displayed robust ATP binding activity
